From the supplement of paper PMC10883282
± gives the standard deviation of the averaged measurements.

Tested on: SYO-1
Assay: relative viability vs DMSO control (72 h) (fraction); higher = more viable cells
Outline: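 Sarcoma cell lines were seeded in 384-well plates at densities set to reach 80–90% confluence. After 24 h, 2.5 µl of serially diluted compound was added (source plates 10 mM to 0.0002 mM), and plates were held 72 h at 37 °C, 5% CO2, with 0.1% DMSO vehicle and a 5 µM positive control. Relative viability came from ATPLite readings as percent growth, averaged over up to triplicate wells. Data were rescaled so full viability equals 1 and none equals 0.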

| SMILES | relative viability (0.00017 µM) | relative viability (0.00051 µM) | relative viability (0.00152 µM) | relative viability (0.00457 µM) | relative viability (0.01372 µM) | relative viability (0.04115 µM) | relative viability (0.1235 µM) | relative viability (0.3704 µM) | relative viability (1.111 µM) | relative viability (3.333 µM) | relative viability (10 µM) |
| --- | --- | --- | --- | --- | --- | --- | --- | --- | --- | --- | --- |
| CC(C)N1CCN(Cc2cnc(-c3cc(-c4cccc5[nH]ccc45)cc4[nH]ncc34)o2)CC1 [Nemiralisib] | 1.02 ± 0.013 | 0.981 ± 0.046 | 0.981 ± 0.036 | 0.974 ± 0.049 | 0.981 ± 0.025 | 0.991 ± 0.02 | 0.9659 ± 0.0068 | 0.968 ± 0.017 | 0.882 ± 0.025 | 0.697 ± 0.028 | -0.0515 ± 0.012 |
| C=CC(=O)N1CCC[C@@H](n2nc(-c3ccc(Oc4ccccc4)cc3)c3c(N)ncnc32)C1 [Ibrutinib] | 0.992 ± 0.034 | 0.959 ± 0.047 | 0.923 ± 0.036 | 0.933 ± 0.042 | 0.923 ± 0.046 | 0.892 ± 0.045 | 0.868 ± 0.041 | 0.861 ± 0.026 | 0.759 ± 0.055 | 0.557 ± 0.027 | 0.39 ± 0.02 |
| CN1CCC(COc2cnc(-c3cccc(Cn4nc(-c5cccc(C#N)c5)ccc4=O)c3)nc2)CC1 [Tepotinib] | 1 ± 0.042 | 0.983 ± 0.042 | 0.974 ± 0.063 | 0.919 ± 0.061 | 0.946 ± 0.05 | 0.912 ± 0.038 | 0.916 ± 0.031 | 0.931 ± 0.06 | 0.884 ± 0.037 | 0.824 ± 0.033 | 0.608 ± 0.055 |
| C[C@@H]1CCN(C(=O)CC#N)C[C@@H]1N(C)c1ncnc2[nH]ccc12 [Tofacitinib] | 1.01 ± 0.051 | 0.969 ± 0.061 | 0.966 ± 0.072 | 0.923 ± 0.024 | 0.887 ± 0.039 | 0.902 ± 0.062 | 0.916 ± 0.043 | 0.888 ± 0.02 | 0.891 ± 0.053 | 0.868 ± 0.032 | 0.766 ± 0.044 |
| Cc1cc(Nc2ncnc3ccc(NC4=NC(C)(C)CO4)cc23)ccc1Oc1ccn2ncnc2c1 [Tucatinib] | 1.03 ± 0.024 | 1.04 ± 0.026 | 1.02 ± 0.015 | 1.01 ± 0.021 | 0.99 ± 0.027 | 0.981 ± 0.038 | 1.01 ± 0.022 | 0.97 ± 0.064 | 0.969 ± 0.019 | 0.959 ± 0.027 | 0.841 ± 0.041 |
| O=C(Nc1cnn2ccc(N3CCC[C@@H]3c3cc(F)ccc3F)nc12)N1CC[C@H](O)C1 [Larotrectinib] | 1.034 ± 0.0067 | 1.02 ± 0.021 | 0.979 ± 0.016 | 0.973 ± 0.047 | 0.946 ± 0.06 | 0.948 ± 0.063 | 0.926 ± 0.075 | 0.937 ± 0.043 | 0.885 ± 0.058 | 0.903 ± 0.062 | 0.875 ± 0.055 |
| C=CC(=O)N1CCC([C@@H]2CCNc3c(C(N)=O)c(-c4ccc(Oc5ccccc5)cc4)nn32)CC1 [Zanubrutinib] | 0.982 ± 0.032 | 0.978 ± 0.025 | 0.976 ± 0.018 | 0.979 ± 0.018 | 0.984 ± 0.015 | 0.9556 ± 0.0067 | 0.967 ± 0.018 | 0.959 ± 0.06 | 0.97 ± 0.061 | 0.884 ± 0.076 | 0.763 ± 0.053 |
| CO[C@H]1C[C@@H]2CC[C@@H](C)[C@@](O)(O2)C(=O)C(=O)N2CCCC[C@H]2C(=O)O[C@H]([C@H](C)C[C@@H]2CC[C@@H](OP(C)(C)=O)[C@H](OC)C2)CC(=O)[C@H](C)/C=C(\C)[C@@H](O)[C@@H](OC)C(=O)[C@H](C)C[C@H](C)/C=C/C=C/C=C/1C [Ridaforolimus] | 0.941 ± 0.022 | 0.924 ± 0.024 | 0.915 ± 0.026 | 0.89 ± 0.037 | 0.868 ± 0.035 | 0.832 ± 0.041 | 0.79 ± 0.042 | 0.775 ± 0.038 | 0.748 ± 0.056 | 0.707 ± 0.058 | 0.672 ± 0.062 |
| COc1cc2/c(=N/c3ccc(Br)cc3F)nc[nH]c2cc1OCC1CCN(C)CC1 [Vandetanib] | 0.926 ± 0.02 | 0.924 ± 0.043 | 0.927 ± 0.028 | 0.899 ± 0.067 | 0.889 ± 0.041 | 0.848 ± 0.034 | 0.793 ± 0.011 | 0.65 ± 0.015 | 0.4003 ± 0.0022 | 0.0998 ± 0.016 | -0.00567 ± 0.0018 |
| CCc1cc2c(cc1N1CCC(N3CCOCC3)CC1)C(C)(C)c1[nH]c3cc(C#N)ccc3c1C2=O [Alectinib] | 0.979 ± 0.024 | 0.983 ± 0.032 | 0.982 ± 0.058 | 0.975 ± 0.059 | 0.99 ± 0.072 | 0.98 ± 0.031 | 0.972 ± 0.081 | 0.986 ± 0.051 | 1 ± 0.05 | 0.984 ± 0.045 | 1.03 ± 0.034 |
| Cc1nc(-c2cn3c(n2)-c2ccc(-c4cnn(C(C)(C)C(N)=O)c4)cc2OCC3)n(C(C)C)n1 [Taselisib] | 0.9262 ± 0.0077 | 0.924 ± 0.029 | 0.924 ± 0.035 | 0.895 ± 0.051 | 0.864 ± 0.042 | 0.794 ± 0.053 | 0.759 ± 0.041 | 0.721 ± 0.046 | 0.684 ± 0.046 | 0.61 ± 0.034 | 0.476 ± 0.033 |
| O=C(Cc1ccc(-c2ccc(OCCN3CCOCC3)cc2)cn1)NCc1ccccc1 [KX2-391] | 1 ± 0.039 | 0.973 ± 0.038 | 0.958 ± 0.017 | 0.952 ± 0.042 | 0.917 ± 0.034 | 0.673 ± 0.027 | 0.295 ± 0.013 | 0.309 ± 0.011 | 0.324 ± 0.015 | 0.324 ± 0.011 | 0.357 ± 0.011 |
